# Laboratory results taken from ChEMBL document CHEMBL1139880, “Potent and selective agonists of human melanocortin receptor 5: cyclic analogues of alpha-melanocyte-stimulating hormone” (J Med Chem, 2007).
# Legend:
# Homo sapiens [1] = species on record: Homo sapiens; assay: Selectivity for human cloned MC5R over human cloned MC1bR
# [2] = molecular target: Melanocortin receptor (M4 and M5) (Homo sapiens) (UniProt P32245+P33032); assay: Selectivity for human cloned MC5R over human cloned MC4R; format: protein assay
# Melanocortin receptor (M4 and M5) (Homo sapiens), sequence (P32245 whole entry, looked up): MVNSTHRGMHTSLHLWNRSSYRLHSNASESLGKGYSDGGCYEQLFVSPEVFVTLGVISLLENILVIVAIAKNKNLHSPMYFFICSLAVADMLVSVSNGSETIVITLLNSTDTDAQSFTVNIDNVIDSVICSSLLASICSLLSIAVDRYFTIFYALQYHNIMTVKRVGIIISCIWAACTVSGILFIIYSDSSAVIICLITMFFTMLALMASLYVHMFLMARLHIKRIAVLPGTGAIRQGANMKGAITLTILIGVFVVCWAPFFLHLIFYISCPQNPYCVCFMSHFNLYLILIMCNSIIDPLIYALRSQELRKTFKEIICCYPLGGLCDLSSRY
# Melanocortin receptor (M4 and M5) (Homo sapiens), sequence (P33032 whole entry, looked up): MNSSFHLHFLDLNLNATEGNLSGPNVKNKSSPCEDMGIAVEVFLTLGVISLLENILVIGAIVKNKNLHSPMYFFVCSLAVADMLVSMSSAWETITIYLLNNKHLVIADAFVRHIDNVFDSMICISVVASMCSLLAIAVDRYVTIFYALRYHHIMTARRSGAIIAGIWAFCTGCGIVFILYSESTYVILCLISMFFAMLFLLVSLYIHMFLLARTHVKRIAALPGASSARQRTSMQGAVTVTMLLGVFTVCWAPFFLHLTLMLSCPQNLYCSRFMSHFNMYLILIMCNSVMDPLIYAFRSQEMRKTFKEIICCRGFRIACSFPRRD
# Homo sapiens [3] = species on record: Homo sapiens; assay: Selectivity for human cloned MC5R over human cloned MC3R
# Melanocortin receptor 4 = Melanocortin receptor 4 (Homo sapiens, UniProt P32245); assay: Agonist activity at human MC4R expressed in CHO cells assessed as cAMP accumulation at […] relative to [125I]NDPalphaMSH
# Melanocortin receptor 4, sequence (P32245 whole entry): as the sequence (P32245 whole entry, looked up) above
# Melanocortin receptor 3 = Melanocortin receptor 3 (Homo sapiens, UniProt P41968); assay: Agonist activity at human MC3R expressed in CHO cells assessed as cAMP accumulation at […] relative to [125I]NDPalphaMSH; format: functional, cell-based
# Melanocortin receptor 3, sequence (P41968 whole entry): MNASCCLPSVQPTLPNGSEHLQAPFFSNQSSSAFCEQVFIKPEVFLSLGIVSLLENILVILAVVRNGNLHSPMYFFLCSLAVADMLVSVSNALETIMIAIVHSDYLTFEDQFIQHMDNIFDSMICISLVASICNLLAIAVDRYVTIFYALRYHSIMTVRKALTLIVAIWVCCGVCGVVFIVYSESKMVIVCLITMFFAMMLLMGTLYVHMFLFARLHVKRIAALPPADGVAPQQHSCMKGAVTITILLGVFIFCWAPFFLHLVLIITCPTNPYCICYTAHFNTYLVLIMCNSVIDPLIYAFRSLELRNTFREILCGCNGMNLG
smiles,measurement,setting,value
CCCC[C@H](NC(C)=O)C(=O)N[C@H]1CC(=O)NCCCC[C@@H](C(N)=O)NC(=O)[C@H](Cc2c[nH]c3ccccc23)NC(=O)[C@@H]2CCCCN2C(=O)[C@H](Cc2ccc(-c3ccccc3)cc2)NC(=O)[C@@H]2Cc3ccccc3CN2C1=O,Ratio IC50,Homo sapiens [1],260
same,Ratio IC50,[2],260
same,Ratio IC50,Homo sapiens [3],1440
same,Activity,Melanocortin receptor 4,0%
same,Activity,Melanocortin receptor 3,10%
